Experimental data: PubChem BioAssay AID248 (DTP/NCI, 2004)
“And” between values parts separate entries of the source, which are not always exact repeats. Identical values can stand only once. Inconclusive results and toxic doses are left out.

Test system: L1210 leukemia ip in BDF1 mice, survival T/C
Assay: NCI In Vivo Anticancer Drug Screen. Data for tumor model L1210 Leukemia (intraperitoneal) in B6D2F1 (BDF1) mice
Conditions: higher = longer survival
Method in brief: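 In this screen, tumor-bearing mice given compound are compared to those given vehicle, and their survival values are reported as a treated-to-control quotient.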

SMILES: CC1CCC(NC(=O)N(CCCl)N=O)CC1 (stereo unspecified)
- T/C (endpoint: mean survival time, dose: 0.1 mg/kg/injection, schedule: Q01DX001 (ip), vehicle: clinical formulation): 211 % of control
- T/C (endpoint: mean survival time, dose: 0.2 mg/kg/injection, schedule: Q01DX001 (ip), vehicle: clinical formulation): 119 % of control
- T/C (endpoint: mean survival time, dose: 0.4 mg/kg/injection, schedule: Q01DX001 (ip), vehicle: clinical formulation): 223 % of control
- T/C (endpoint: mean survival time, dose: 0.45 mg/kg/injection, schedule: Q01DX009 (ip), vehicle: saline with Tween-80): 99 % of control and 103 % of control
- T/C (endpoint: mean survival time, dose: 0.9 mg/kg/injection, schedule: Q01DX009 (ip), vehicle: saline with Tween-80): 106 % of control and 118 % of control
- T/C (endpoint: mean survival time, dose: 1.0 mg/kg/injection, schedule: Q01DX001 (ip), vehicle: other): 112 % of control
- T/C (endpoint: mean survival time, dose: 1.0 mg/kg/injection, schedule: Q04DX002 (ip), vehicle: saline with Tween-80): 95 % of control and 100 % of control
- T/C (endpoint: mean survival time, dose: 2.0 mg/kg/injection, schedule: Q01DX001 (ip), vehicle: other): 118 % of control
- T/C (endpoint: mean survival time, dose: 2.0 mg/kg/injection, schedule: Q01DX009 (ip), vehicle: saline): 98 % of control
- T/C (endpoint: mean survival time, dose: 2.0 mg/kg/injection, schedule: Q04DX002 (ip), vehicle: saline with Tween-80): 101 % of control and 120 % of control
- T/C (endpoint: mean survival time, dose: 2.5 mg/kg/injection, schedule: Q01DX Z (ip), vehicle: Klucel (hydroxypropylcellulose) (HPC)): 115 % of control
- T/C (endpoint: mean survival time, dose: 3.1 mg/kg/injection, schedule: Q07DX003 (ip), vehicle: Klucel (hydroxypropylcellulose) (HPC)): 109 % of control
- T/C (endpoint: mean survival time, dose: 4.0 mg/kg/injection, schedule: Q01DX009 (ip), vehicle: saline): 104 % of control
- T/C (endpoint: mean survival time, dose: 4.0 mg/kg/injection, schedule: Q04DX002 (ip), vehicle: saline with Tween-80): 103 % of control and 107 % of control
- T/C (endpoint: mean survival time, dose: 5.0 mg/kg/injection, schedule: Q01DX Z (ip), vehicle: Klucel (hydroxypropylcellulose) (HPC)): 205 % of control
- T/C (endpoint: mean survival time, dose: 6.0 mg/kg/injection, schedule: Q01DX001 (ip), vehicle: other): 154 % of control
- T/C (endpoint: mean survival time, dose: 6.2 mg/kg/injection, schedule: Q07DX003 (ip), vehicle: Klucel (hydroxypropylcellulose) (HPC)): 100 % of control
- T/C (endpoint: mean survival time, dose: 6.7 mg/kg/injection, schedule: Q04DX004 (ip), vehicle: saline with Tween-80): 206 % of control
- T/C (endpoint: mean survival time, dose: 8.0 mg/kg/injection, schedule: Q01DX001 (ip), vehicle: other): 165 % of control
- T/C (endpoint: mean survival time, dose: 8.0 mg/kg/injection, schedule: Q01DX009 (ip), vehicle: saline): 117 % of control
- T/C (endpoint: mean survival time, dose: 10.0 mg/kg/injection, schedule: Q01DX001 (ip), vehicle: Klucel (hydroxypropylcellulose) (HPC)): 445 % of control
- T/C (endpoint: mean survival time, dose: 10.0 mg/kg/injection, schedule: Q01DX001 (ip), vehicle: clinical formulation): 280 % of control
- T/C (endpoint: mean survival time, dose: 10.0 mg/kg/injection, schedule: Q01DX001 (ip), vehicle: saline): 328 % of control
- T/C (endpoint: mean survival time, dose: 10.0 mg/kg/injection, schedule: Q01DX001 (iv), vehicle: clinical formulation): 186 % of control and 205 % of control and 245 % of control
- T/C (endpoint: mean survival time, dose: 10.0 mg/kg/injection, schedule: Q01DX Z (ip), vehicle: Klucel (hydroxypropylcellulose) (HPC)): 240 % of control and 282 % of control
- T/C (endpoint: mean survival time, dose: 10.0 mg/kg/injection, schedule: Q04DX004 (ip), vehicle: saline with Tween-80): 273 % of control
- T/C (endpoint: mean survival time, dose: 10.7 mg/kg/injection, schedule: Q01DX001 (ip), vehicle: saline with Tween-80): 181 % of control
- T/C (endpoint: mean survival time, dose: 12.0 mg/kg/injection, schedule: Q01DX001 (ip), vehicle: other): 213 % of control
- T/C (endpoint: mean survival time, dose: 12.5 mg/kg/injection, schedule: Q01DX001 (ip), vehicle: other): 241 % of control
- T/C (endpoint: mean survival time, dose: 12.5 mg/kg/injection, schedule: Q01DX001 (ip), vehicle: saline): 172 % of control
- T/C (endpoint: mean survival time, dose: 12.5 mg/kg/injection, schedule: Q07DX003 (ip), vehicle: Klucel (hydroxypropylcellulose) (HPC)): 294 % of control
- T/C (endpoint: mean survival time, dose: 13.0 mg/kg/injection, schedule: Q01DX001 (ip), vehicle: other): 196 % of control
- T/C (endpoint: mean survival time, dose: 15.0 mg/kg/injection, schedule: Q01DX001 (ip), vehicle: clinical formulation): 218 % of control
- T/C (endpoint: mean survival time, dose: 15.0 mg/kg/injection, schedule: Q01DX001 (ip), vehicle: saline): 238 % of control
- T/C (endpoint: mean survival time, dose: 15.0 mg/kg/injection, schedule: Q01DX001 (iv), vehicle: clinical formulation): 326 % of control
- T/C (endpoint: mean survival time, dose: 15.0 mg/kg/injection, schedule: Q01DX001 (iv), vehicle: saline): 154 % of control
- T/C (endpoint: mean survival time, dose: 15.0 mg/kg/injection, schedule: Q04DX004 (ip), vehicle: saline with Tween-80): 319 % of control
- T/C (endpoint: mean survival time, dose: 16.0 mg/kg/injection, schedule: Q01DX001 (ip), vehicle: other): 321 % of control
- T/C (endpoint: mean survival time, dose: 18.0 mg/kg/injection, schedule: Q01DX001 (ip), vehicle: other): 265 % of control
- T/C (endpoint: mean survival time, dose: 20.0 mg/kg/injection, schedule: Q01DX001 (ip), vehicle: Klucel (hydroxypropylcellulose) (HPC)): 442 % of control
- T/C (endpoint: mean survival time, dose: 20.0 mg/kg/injection, schedule: Q01DX001 (iv), vehicle: Klucel (hydroxypropylcellulose) (HPC)): 332 % of control
- T/C (endpoint: mean survival time, dose: 20.0 mg/kg/injection, schedule: Q01DX001 (iv), vehicle: clinical formulation): 371 % of control
- T/C (endpoint: mean survival time, dose: 20.0 mg/kg/injection, schedule: Q01DX Z (ip), vehicle: Klucel (hydroxypropylcellulose) (HPC)): 166 % of control
- T/C (endpoint: mean survival time, dose: 20.0 mg/kg/injection, schedule: Q04DX004 (ip), vehicle: saline with Tween-80): 290 % of control
- T/C (endpoint: mean survival time, dose: 22.0 mg/kg/injection, schedule: Q01DX001 (ip), vehicle: clinical formulation): 255 % of control
- T/C (endpoint: mean survival time, dose: 22.0 mg/kg/injection, schedule: Q01DX001 (ip), vehicle: saline): 326 % of control
- T/C (endpoint: mean survival time, dose: 22.0 mg/kg/injection, schedule: Q01DX001 (iv), vehicle: clinical formulation): 250 % of control
- T/C (endpoint: mean survival time, dose: 22.0 mg/kg/injection, schedule: Q01DX001 (iv), vehicle: saline): 202 % of control
- T/C (endpoint: mean survival time, dose: 24.0 mg/kg/injection, schedule: Q01DX001 (ip), vehicle: other): 252 % of control
- T/C (endpoint: mean survival time, dose: 24.0 mg/kg/injection, schedule: Q01DX001 (ip), vehicle: saline with Tween-80): 436 % of control
- T/C (endpoint: mean survival time, dose: 24.0 mg/kg/injection, schedule: Q01DX001 (oral), vehicle: other): 364 % of control
- T/C (endpoint: mean survival time, dose: 25.0 mg/kg/injection, schedule: Q01DX001 (ip), vehicle: other): 300 % of control
- T/C (endpoint: mean survival time, dose: 25.0 mg/kg/injection, schedule: Q01DX001 (ip), vehicle: saline): 382 % of control
- T/C (endpoint: mean survival time, dose: 25.0 mg/kg/injection, schedule: Q07DX003 (ip), vehicle: Klucel (hydroxypropylcellulose) (HPC)): 214 % of control
- T/C (endpoint: mean survival time, dose: 26.0 mg/kg/injection, schedule: Q01DX009 (ip), vehicle: saline with Tween-80): 97 % of control and 101 % of control
- T/C (endpoint: mean survival time, dose: 27.0 mg/kg/injection, schedule: Q01DX001 (ip), vehicle: other): 283 % of control
- T/C (endpoint: mean survival time, dose: 30.0 mg/kg/injection, schedule: Q01DX001 (ip), vehicle: other): 321 % of control
- T/C (endpoint: mean survival time, dose: 31.0 mg/kg/injection, schedule: Q01DX001 (ip), vehicle: other): 357 % of control
- T/C (endpoint: mean survival time, dose: 33.0 mg/kg/injection, schedule: Q01DX001 (ip), vehicle: saline): 326 % of control
- T/C (endpoint: mean survival time, dose: 33.0 mg/kg/injection, schedule: Q01DX001 (iv), vehicle: saline): 297 % of control
- T/C (endpoint: mean survival time, dose: 40.0 mg/kg/injection, schedule: Q01DX001 (ip), vehicle: Klucel (hydroxypropylcellulose) (HPC)): 180 % of control
- T/C (endpoint: mean survival time, dose: 40.0 mg/kg/injection, schedule: Q01DX001 (ip), vehicle: clinical formulation): 404 % of control
- T/C (endpoint: mean survival time, dose: 40.0 mg/kg/injection, schedule: Q01DX001 (iv), vehicle: Klucel (hydroxypropylcellulose) (HPC)): 395 % of control
- T/C (endpoint: mean survival time, dose: 40.0 mg/kg/injection, schedule: Q01DX001 (iv), vehicle: clinical formulation): 188 % of control and 251 % of control
- T/C (endpoint: mean survival time, dose: 40.0 mg/kg/injection, schedule: Q04DX004 (ip), vehicle: saline with Tween-80): 123 % of control
- T/C (endpoint: mean survival time, dose: 45.0 mg/kg/injection, schedule: Q01DX001 (ip), vehicle: other): 304 % of control
- T/C (endpoint: mean survival time, dose: 50.0 mg/kg/injection, schedule: Q01DX001 (ip), vehicle: other): 226 % of control
- T/C (endpoint: mean survival time, dose: 50.0 mg/kg/injection, schedule: Q01DX001 (ip), vehicle: saline): 326 % of control and 360 % of control
- T/C (endpoint: mean survival time, dose: 50.0 mg/kg/injection, schedule: Q07DX003 (ip), vehicle: Klucel (hydroxypropylcellulose) (HPC)): 121 % of control
- T/C (endpoint: mean survival time, dose: 62.0 mg/kg/injection, schedule: Q01DX001 (ip), vehicle: other): 109 % of control
- T/C (endpoint: mean survival time, dose: 64.0 mg/kg/injection, schedule: Q04DX002 (ip), vehicle: saline with Tween-80): 294 % of control and 313 % of control
- T/C (endpoint: mean survival time, dose: 67.0 mg/kg/injection, schedule: Q01DX001 (ip), vehicle: other): 230 % of control
- T/C (endpoint: mean survival time, dose: 72.0 mg/kg/injection, schedule: Q01DX001 (ip), vehicle: other): 113 % of control
- T/C (endpoint: mean survival time, dose: 75.0 mg/kg/injection, schedule: Q01DX001 (ip), vehicle: saline): 219 % of control and 296 % of control
- T/C (endpoint: mean survival time, dose: 91.0 mg/kg/injection, schedule: Q01DX001 (oral), vehicle: other): 280 % of control and 306 % of control and 388 % of control
- T/C (endpoint: mean survival time, dose: 400.0 mg/kg/injection, schedule: Q01DX001 (ip), vehicle: saline with Tween-80): 100 % of control
- T/C (endpoint: median survival time, dose: 1.8 mg/kg/injection, schedule: Q01DX009 (ip), vehicle: saline): 318 % of control
- T/C (endpoint: median survival time, dose: 7.5 mg/kg/injection, schedule: Q01DX009 (ip), vehicle: saline): 211 % of control
- T/C (endpoint: median survival time, dose: 12.5 mg/kg/injection, schedule: Q01DX001 (ip), vehicle: saline with Tween-80): 118 % of control and 121 % of control
- T/C (endpoint: median survival time, dose: 15.0 mg/kg/injection, schedule: Q01DX009 (ip), vehicle: saline): 96 % of control
- T/C (endpoint: median survival time, dose: 100.0 mg/kg/injection, schedule: Q01DX001 (ip), vehicle: saline with Tween-80): 106 % of control and 109 % of control
